Tested on: murine embryonic fibroblasts (MEFs)
Test: β-Lactamase protein transduction assay (CCF2-AM), protocol 3/700
Settings: 3 hours; for protein transducing activity of hypertonicity-inducing compound: tonicity adjusted to 700 mOsm/Kg with the compound, 25 mM NDSB201 and osmoprotectants; for effect of endocytic pathway inhibitor on protein transduction / enhancement of protein transduction by GABA agonist: 1 μM β-lactamase; for effect of endocytic pathway inhibitor on protein transduction: 700 mOsm/Kg NaCl, 25 mM NDSB201; for enhancement of protein transduction by GABA agonist: 25 mM NDSB201 plus GABA agonist, NDSB201 alone = 100%; for effect of growth factor or peptide on β-lactamase transduction of MEFs: 25 mM NDSB201, 30 mM Glycerol, 15 mM Glycine
Excerpt: To further characterize the protein transduction process we analyzed the effect of time, osmolality, transduction compound concentration and protein concentration on the transduction process. To this end, we set up a β-Lactamase protein transduction assay and measured intracellular β-Lactamase activity using CCF2-AM, an intracellular fluorescent β-Lactamase substrate that changes emission wavelength when cleaved by the enzyme (FIG. 3A). […] While we used the immortalized COS7 cell line in our initial studies, we wanted to know if the compound-mediated protein transduction would also allow the transduction of protein into primary cells. We therefore transduced murine embryonic fibroblasts (MEFs) with β-Lactamase (1 μM final concentration), using NaCl-adjusted hypertonic media (700 mOsm/Kg) and 25 mM NDSB201. β-Lactamase activity was set at 1 at the start of the experiment and relative intracellular β-Lactamase activity was measured as a function of time (FIG. 3B, bars). As a control, β-Lactamase transduction was measured in isotonic media in the presence of 25 mM NSDB201 (FIG. 3B, open circles).
β-lactamase transduction was performed using the 3/700 protocol above in murine embryonic fibroblasts (MEFs). A black, clear-bottom 96 well-plate was coated with 0.15 mg/ml of Poly-D-Lysine for 1 h at room temperature. 12,000 MEFs cells were seeded per well in MEF media without antibiotics. Next day, cells were transduced using the transduction protocol 3/700 as describe above. […] Na- or Rb-salt was added to adjust the final tonicity to 700 mOsm/Kg. […] After 3 hrs., the transduction media was replaced by fresh MEF media for 30 min. Subsequently, cells were washed once with phenol-red-free DMEM. β-lactamase activity was measured using the CCF2-AM kit following the manufacturer's instructions. In brief, 120 μl of CCF2-AM loading media was added per well and cells were incubated for 1 h at room temperature. Cells were washed two times with DMEM phenol-red free and incubated for an additional 30-60 min. Fluorescence emission was measured at […] and 510 nm following manufacturer's instructions. All tests were done in triplicate.

Row | Compound | protein transducing activity of hypertonicity-inducing compound | effect of endocytic pathway inhibitor on protein transduction | other results
1 | OC[C@H]1O[C@@H](O[C@@H]2[C@@H](CO)OC(O)(CO)[C@H]2O)[C@H](O)[C@@H](O)[C@H]1O (mixture of isomers) [Lactulose] | failed to induce protein transduction |  | 
2 | CN(C)CCCN1c2ccccc2Sc2ccc(Cl)cc21 [Chlorpromazine, reference compound] |  | ineffective in inhibiting protein transduction | 
3 | [Cl-].[Cs+] [CsCl, caesium chloride] | had protein transducing activity |  | 
4 | C=C1[C@@H](C)[C@H]2[C@H](Cc3ccccc3)NC(=O)[C@]23[C@H](OC(C)=O)/C=C/[C@@](C)(O)C(=O)[C@@H](C)C/C=C/[C@H]3[C@@H]1O [Cytochalasin D, reference compound] |  | completely blocked protein transduction | 
5 | CN(C)c1nc(N)c(C(=O)N=C(N)N)nc1Cl.Cl [DMA, 5-(N,N-dimethyl) amiloride hydrochloride, reference compound] |  | strongly inhibited | 
6 | O=C(N/N=C/c1ccc(O)c(O)c1)c1cc2ccccc2cc1O [Dynasore, reference compound] |  | ineffective in inhibiting protein transduction | 
7 | [Cl-].[K+] [KCl, potassium chloride] | had protein transducing activity |  | 
8 | C/C1=C/C(=O)O[C@@H]2C[C@@H](CC[C@H](C)/C=C\C=C\CC1)O[C@@](O)([C@@H]1CSC(=O)N1)C2 [Latrunculin A, reference compound] |  | completely blocked protein transduction | 
9 | [Cl-].[Li+] [LiCl, lithium chloride] | had protein transducing activity |  | 
10 | OC[C@@H](O)[C@@H](O)[C@H](O)[C@H](O)CO [Manitol] | failed to induce protein transduction |  | 
11 | NCc1cc(=O)[nH]o1 [Muscimol, reference compound] |  |  | enhancement of protein transduction by GABA agonist (700 mOsm/Kg): approximately 300%
12 | C[C@@H]1[C@H](O)[C@@H](C)/C=C/C=C/CC/C=C/C=C/C=C/C=C/C(O[C@H]2O[C@H](C)[C@@H](O)[C@H](N)[C@@H]2O)CC2O[C@](O)(CC(O)C(O)CCC(O)CC(O)CC(O)CC(=O)O[C@H]1C)CC(O)C2C(=O)O (stereo partly shown) [Nystatin, reference compound] |  | ineffective in inhibiting protein transduction | 
13 | O=C1NC(=NS(=O)(=O)c2cccc3ccccc23)S/C1=C\c1ccc(Br)cc1 [Pitstop2, reference compound] |  | ineffective in inhibiting protein transduction | 
14 | [Cl-].[Rb+] [RbCl, rubidium chloride] | the highest activity |  | 
15 | CP(=O)(O)CCCN [SKF-97541, reference compound] |  |  | enhancement of protein transduction by GABA agonist (700 mOsm/Kg): approximately 300%
16 | O=C([O-])[C@H](O)[C@@H](O)[C@H](O)[C@H](O)CO.[Na+] [Sodium Gluconate] | efficiency similar to NaCl and RbCl |  | 
17 | OC[C@@H](O)[C@@H](O)[C@H](O)[C@@H](O)CO [Sorbitol] | failed to induce protein transduction |  | 
18 | OC[C@H]1O[C@@](CO)(O[C@H]2O[C@H](CO)[C@@H](O)[C@H](O)[C@H]2O)[C@@H](O)[C@@H]1O [Sucrose] | failed to induce protein transduction |  | 
19 | C[N+]1(CCCS(=O)(=O)[O-])CCCCC1 [compound 03, 3-(1-methylpiperidine)-1-propanesulfonate, reference compound] |  |  | protein transduction activity (in words) (700 mOsm/Kg, 25 mM compound, compared with NDSB201 (#01) or parent compound): most efficient
20 | EGF: epidermal growth factor |  |  | effect of growth factor or peptide on β-lactamase transduction of MEFs (700 mOsm/Kg): doubling of β-lactamase uptake
21 | Insulin: Insulin |  |  | effect of growth factor or peptide on β-lactamase transduction of MEFs (700 mOsm/Kg): small, but significant stimulatory effect
22 | PDGF |  |  | effect of growth factor or peptide on β-lactamase transduction of MEFs (700 mOsm/Kg): doubling of β-lactamase uptake
